≈ marks a conversion by molar mass, not a printed value. Some results are limits rather than exact numbers.

One assay concerns E. faecalis ATCC 29212. Description: MIC against E. faecalis ATCC 29212. The note with it: Enterococcus faecalis, ATCC29212, read-out: MIC. It is filed as cell-based.
With `CCOC(=O)CCN1C[C@@H]2CC=CCO[C@H]2[C@H]1C(=O)N[C@H]([C@H](C)Sc1ccc(-c2cccnc2)cc1)[C@H]1OC(SC)[C@H](O)[C@H](O)C1O` (stereo partly drawn) [FSA-214009b], the MIC is over 64 µg/mL.
For the compound `CSC1O[C@H]([C@H](NC(=O)[C@H]2NC[C@@H]3CC(c4ccc(C)cc4)=CCO[C@H]32)[C@H](C)Cl)C(O)[C@@H](O)[C@H]1O` (stereo partly drawn) [FSA-511019], the MIC is 4 µg/mL (≈ 7.59 µM).
On the same count and under the same terms, next, `CSC1O[C@H]([C@H](NC(=O)[C@H]2NC[C@@H]3CC(c4ccc(C#N)cc4)=CCO[C@H]32)[C@H](C)Cl)C(O)[C@@H](O)[C@H]1O` (stereo partly drawn) [FSA-511033]: 2 µg/mL (≈ 3.72 µM).

Another assay relates to S. aureus MP-549 msr(a) USA 300. Description: MIC against S. aureus MP-549 msr(a) USA 300. It is filed as cell-based. Conditions: Staphylococcus aureus, USA300, S. aureus MP-549 msr(a) USA 300.
The compound `CSC1O[C@H]([C@H](NC(=O)[C@H]2NC[C@@H]3CC(c4ccc(C)cc4)=CCO[C@H]32)[C@H](C)Cl)C(O)[C@@H](O)[C@H]1O` (stereo partly drawn) [FSA-511019] showed an MIC of 0.5 µg/mL (≈ 0.949 µM).
`CSC1O[C@H]([C@H](NC(=O)[C@H]2NC[C@@H]3CC(c4ccc(C#N)cc4)=CCO[C@H]32)[C@H](C)Cl)C(O)[C@@H](O)[C@H]1O` (stereo partly drawn) [FSA-511033] gave an MIC of 1 µg/mL (≈ 1.86 µM).

The subject of another assay is S. pyogenes ATCC 19615. Briefly: MIC against S. pyogenes ATCC 19615. It is filed as cell-based. The note with it: Streptococcus pyogenes, ATCC19615; S. pyogenes ATCC 19615; read-out: MIC.
For the compound `CSC1O[C@H]([C@H](NC(=O)[C@H]2NC[C@@H]3CC(c4cccc5cnccc45)=CCO[C@H]32)[C@H](C)Cl)C(O)[C@@H](O)[C@H]1O` (stereo partly drawn) [FSA-510006], the MIC stood at 0.5 µg/mL (≈ 0.886 µM).
On the same count and under the same terms, then `CCOC(=O)CCN1C[C@@H]2CC=CCO[C@H]2[C@H]1C(=O)N[C@H]([C@H](C)Sc1ccc(-c2cccnc2)cc1)[C@H]1OC(SC)[C@H](O)[C@H](O)C1O` (stereo partly drawn) [FSA-214009b], with 8 µg/mL (≈ 11.6 µM).
Still for that read-out and setting: next, `CSC1O[C@H]([C@H](NC(=O)[C@H]2NC[C@@H]3CC(c4ccc(C)cc4)=CCO[C@H]32)[C@H](C)Cl)C(O)[C@@H](O)[C@H]1O` (stereo partly drawn) [FSA-511019]: 0.195 µg/mL (≈ 0.37 µM).
On to `CSC1O[C@H]([C@H](NC(=O)[C@H]2NC[C@@H]3CC(c4ccc(C#N)cc4)=CCO[C@H]32)[C@H](C)Cl)C(O)[C@@H](O)[C@H]1O` (stereo partly drawn) [FSA-511033], for which the MIC was at most 0.06 µg/mL.

The next assay has as its system E. coli MP-9 ΔTolC. Description: MIC against E. coli MP-9 ΔTolC. The note with it: Escherichia coli. It is filed as cell-based.
Take `CSC1O[C@H]([C@H](NC(=O)[C@H]2NC[C@@H]3CC(c4cccc5cnccc45)=CCO[C@H]32)[C@H](C)Cl)C(O)[C@@H](O)[C@H]1O` (stereo partly drawn) [FSA-510006]: the MIC was over 64 µg/mL.

Another assay has as its system S. pneumoniae ATCC 49619. Briefly: MIC against S. pneumoniae ATCC 49619. It is filed as cell-based. Conditions: Streptococcus pneumoniae, ATCC49619; S. pneumoniae ATCC 49619; read-out: MIC.
Consider `CSC1O[C@H]([C@H](NC(=O)[C@H]2NC[C@@H]3CC(c4cccc5cnccc45)=CCO[C@H]32)[C@H](C)Cl)C(O)[C@@H](O)[C@H]1O` (stereo partly drawn) [FSA-510006], for which the MIC was 1 µg/mL (≈ 1.77 µM).
On the same count and under the same terms, then `CSC1O[C@H]([C@H](NC(=O)[C@H]2NC[C@@H]3CC(c4ccc(C#N)cc4)=CCO[C@H]32)[C@H](C)Cl)C(O)[C@@H](O)[C@H]1O` (stereo partly drawn) [FSA-511033], with at most 0.06 µg/mL.

Another assay deals with E. coli ATCC 25922. Briefly: MIC against E. coli ATCC 25922. It counts as cell-based. Conditions: Escherichia coli, ATCC25922.
On to `CSC1O[C@H]([C@H](NC(=O)[C@H]2NC[C@@H]3CC(c4cccc5cnccc45)=CCO[C@H]32)[C@H](C)Cl)C(O)[C@@H](O)[C@H]1O` (stereo partly drawn) [FSA-510006], for which the MIC is over 64 µg/mL.

Still in this assay, the particulars now being: Escherichia coli, ATCC25922; E. coli ATCC 25922; read-out: MIC.
On to `CCOC(=O)CCN1C[C@@H]2CC=CCO[C@H]2[C@H]1C(=O)N[C@H]([C@H](C)Sc1ccc(-c2cccnc2)cc1)[C@H]1OC(SC)[C@H](O)[C@H](O)C1O` (stereo partly drawn) [FSA-214009b], for which the MIC was over 64 µg/mL.
The same measure, in the same setting: then `CSC1O[C@H]([C@H](NC(=O)[C@H]2NC[C@@H]3CC(c4ccc(C)cc4)=CCO[C@H]32)[C@H](C)Cl)C(O)[C@@H](O)[C@H]1O` (stereo partly drawn) [FSA-511019], with over 64 µg/mL; and `CSC1O[C@H]([C@H](NC(=O)[C@H]2NC[C@@H]3CC(c4ccc(C#N)cc4)=CCO[C@H]32)[C@H](C)Cl)C(O)[C@@H](O)[C@H]1O` (stereo partly drawn) [FSA-511033], with over 64 µg/mL.

The test system of the next assay is K. pneumoniae ATCC 10031. Briefly: MIC against K. pneumoniae ATCC 10031. It is filed as cell-based. Conditions: Klebsiella pneumoniae, ATCC10031.
Regarding `CSC1O[C@H]([C@H](NC(=O)[C@H]2NC[C@@H]3CC(c4cccc5cnccc45)=CCO[C@H]32)[C@H](C)Cl)C(O)[C@@H](O)[C@H]1O` (stereo partly drawn) [FSA-510006], the MIC was over 64 µg/mL.

Still in this assay, the particulars now being: Klebsiella pneumoniae, ATCC10031; K. pneumoniae ATCC 10031; read-out: MIC.
Consider `CSC1O[C@H]([C@H](NC(=O)[C@H]2NC[C@@H]3CC(c4ccc(C)cc4)=CCO[C@H]32)[C@H](C)Cl)C(O)[C@@H](O)[C@H]1O` (stereo partly drawn) [FSA-511019], for which the MIC is over 64 µg/mL.

The test system of the next assay is H. influenzae ATCC 49247. Description: MIC against H. influenzae ATCC 49247. The note with it: Haemophilus influenzae, ATCC49247. It counts as cell-based.
`CSC1O[C@H]([C@H](NC(=O)[C@H]2NC[C@@H]3CC(c4cccc5cnccc45)=CCO[C@H]32)[C@H](C)Cl)C(O)[C@@H](O)[C@H]1O` (stereo partly drawn) [FSA-510006] returned an MIC of over 64 µg/mL.

Still in this assay, the particulars now being: Haemophilus influenzae, ATCC49247; H. influenzae ATCC 49247; read-out: MIC.
Take `COc1ccc([C@@H]2CCO[C@@H]3[C@H](CN[C@@H]3C(=O)N[C@H]([C@H](C)Cl)[C@H]3OC(SC)[C@H](O)[C@H](O)C3O)C2)cc1` (stereo partly drawn) [FSA-512080c]: the MIC turned out to be 37 µg/mL (≈ 67.9 µM).

Another assay has as its system S. aureus ATCC 29213. Description: MIC against S. aureus ATCC 29213. It counts as cell-based. The note with it: Staphylococcus aureus, ATCC29213.
For the compound `CSC1O[C@H]([C@H](NC(=O)[C@H]2NC[C@@H]3CC(c4ccc(C)cc4)=CCO[C@H]32)[C@H](C)Cl)C(O)[C@@H](O)[C@H]1O` (stereo partly drawn) [FSA-511019], the MIC turned out to be 0.5 µg/mL (≈ 0.949 µM).

Staying with this assay, now noted: Staphylococcus aureus, ATCC29213, S. aureus ATCC 29213; read-out: MIC.
`CSC1O[C@H]([C@H](NC(=O)[C@H]2NC[C@@H]3CC(c4cccc5cnccc45)=CCO[C@H]32)[C@H](C)Cl)C(O)[C@@H](O)[C@H]1O` (stereo partly drawn) [FSA-510006]: the MIC worked out at 8 µg/mL (≈ 14.2 µM).
The same measure, in the same setting: next, `CCOC(=O)CCN1C[C@@H]2CC=CCO[C@H]2[C@H]1C(=O)N[C@H]([C@H](C)Sc1ccc(-c2cccnc2)cc1)[C@H]1OC(SC)[C@H](O)[C@H](O)C1O` (stereo partly drawn) [FSA-214009b]: at least 64 µg/mL.
With `CSC1O[C@H]([C@H](NC(=O)[C@H]2NC[C@@H]3CC(c4ccc(C#N)cc4)=CCO[C@H]32)[C@H](C)Cl)C(O)[C@@H](O)[C@H]1O` (stereo partly drawn) [FSA-511033], the MIC was 0.5 µg/mL (≈ 0.929 µM).

Source of the values: patent US20220073554A1, “LINCOSAMIDE ANTIBIOTICS AND USES THEREOF” (President and Fellows of Harvard College, priority 2017, published 2022).
